Assay results published in patent US20260191962A1, “NOVEL CHLORIN E6 ANALOGUES” (RMW CHO Group Limited, priority 2022, published 2026).
Where a name gives a salt, the structure may show the parent alone. Read-outs that look alike come from different tables or passages of the source.

Tests used:
[1] = system: SKOV3 ovarian cancer cells; test: Phototoxicity of chlorin e6 analogues in SKOV3 cells after 652 nm laser activation (AlamarBlue viability); type: cell-based, Human; settings: for IC90: 24 h uptake, 652 nm laser 50 mW/cm^2 for 5 mins (15 J/cm^2), viability 24 h later; for Phototoxicity in vitro compared with compounds 1, 2 and 8: comparison in words
Method: Samples were stored at 4° C. protected from light.
All data are shown as mean±SD (where appropriate).
To test for phototoxicity, cells incubated with chlorin e6 analogues (0-10 μM in DMSO) had culture media replaced after 24 hours (as above) and were then exposed to a 652 nm laser (Invion) with laser density at 50 mW/cm^2 for 5 mins (total 15 J/cm^2). Following activation, cells were cultured for a further 24 hours. Media was then replaced with fresh media containing AlamarBlue, and % viable cells remaining assessed as above. Controls included cells treated with chlorin e6 analogues but not activated by laser light; cells without chlorin e6 analogue treatment but with laser light; and untreated controls. All measurements were made in quadruplicate.
To evaluate the therapeutic potential of chlorin e6 analogues, the therapeutic index (TI) was calculated. TI provides a quantitative measurement to describe relative drug safety, by comparing the drug concentration required for desirable effects versus the concentration resulting in undesirable off-target toxicity. TI was calculated using phototoxicity IC90 vs dark toxicity IC10.

[2] = system: SKOV3 ovarian cancer cells; settings: human, 24 h
Method: (§1) Photosensitizers (e.g. chlorin e6 analogue, chlorin e4 disodium (provided by Advanced Molecular Technologies, Scoresby) or Talaporfin sodium (purchased from Focus Bioscience cat #HY-16477-5MG)) were resuspended in 100% dimethylsulfoxide (DMSO) at a concentration of 5.5 mM. Samples were stored at 4° C. protected from light.
(§2) For in vitro experiments, photosensitizers (stock solution 5.5 mM in 100% DMSO) were diluted 1:100 in concentrated excipient solution (final 55 M photosensitizer in 10% w/v Kollidon-12, 42.4% w/v polysorbate 80, 0.6% w/v citric acid anhydrous, 40% w/v ethanol, 1.0% DMSO). Serial dilutions were prepared in cell culture media (Dulbecco's Modified Eagle Medium/Nutrient Mixture F-12 (DMEM/F-12)) supplemented with 10% v/v Fetal Bovine Serum, 100 U/mL penicillin, 100 μg/mL streptomycin and the same excipient solution at a constant 1:55 dilution.
(§3) Human ovarian cancer cell line SKOV3 (ATCC #HTB-77) was maintained in Dulbecco's Modified Eagle Medium/Nutrient Mixture F-12 (DMEM/F-12), supplemented with 10% v/v Fetal Bovine Serum, 100 U/mL penicillin and 100 g/mL streptomycin. Monolayer cultures were grown in a humidified incubator at 37° C. with 5% CO2. Once cells had reached ~80% confluence, spent media was replaced with media containing photosensitizer at the required concentration and cells were incubated for the desired period of time to allow photosensitizer uptake.
(§4) Spectral absorbance and viability measurements were normalized in the range 0-100%, with a minimum of 0 and a maximum value determined from the dataset. Dose response was determined using a sigmoidal four-point non-linear regression with variable slope, and IC10 or IC90 calculated for each compound. All data are shown as mean±SD (where appropriate).
(§5) SKOV3 cells were seeded in 96-well black wall plates (Greiner #655090) at a cell density of 5000 cells in 100 μl culture medium per well. On reaching 60% confluence, media was aspirated and replaced with fresh media containing the relevant chlorin e6 analogue from 0-100 μM in DMSO. Cells were incubated for a further 24 hours, allowing uptake of chlorin e6 analogues.
(§6) To test for inherent cytotoxicity (i.e. “dark toxicity”) of the chlorin e6 analogues, the culture media was replaced after 24 hours with fresh media containing 10% (v/v) AlamarBlue Cell Viability Reagent (ThermoFisher) and cells incubated at 37° C. for 6 hours. Untreated cells were used as a control. Fluorescence (Ex 555 nm/Em 596 nm) was measured using a Cytation 3 Cell Imaging Multi-Mode Reader (Biotek), and cytotoxicity assessed according to the % viable cells remaining. All measurements were made in quadruplicate.
(§7) The phototoxicity and inherent cytotoxicity (i.e. “dark toxicity”) of chlorin e6 analogues were assessed as previously using SKOV3 ovarian cancer cells.

[3] = Stability of chlorin e6 analogue salts in aqueous solution (HPLC purity over time); type: physicochemical; settings: 30° C.; for Stability: aqueous solution, overall rating in words
Method: Reaction solutions were prepared by dissolving 2-3 mg of the respective chlorin e6 analogue salt in 5 mL of distilled deionised water in a 50 mL test tube fitted with a lid. The solutions were stirred in the test tubes at 30° C. Air (oxygen) and ambient light so were not excluded. Sample HPLC analyses were performed at 0.5, 4 or 66 hours (unless indicated otherwise). The aim was to look for degradation over time.
• Mobile Phase: A=0.05% w/v phosphoric acid in distilled water; B=acetonitrile • Injection volume: 5 μL • HPLC run length: 35 minutes • Detection wavelength: 406 nm • Column temperature: 40° C.

[4] = system: SKOV3 ovarian cancer cells; test: Inherent cytotoxicity (dark toxicity) in SKOV3 cells (AlamarBlue viability); settings: 24 h incubation, no light activation
Method: as §1, §2, §3, §4, §5, §6, §7

[5] = Homo sapiens, SK-OV-3, light or radiation study
[6] = distilled deionised water, air and ambient light not excluded
[7] = distilled deionised water, air and ambient light not excluded, Disodium Salt

SMILES | Stability [3] | Purity by HPLC after 0.5 hours (%) [3, 6] [%] | Purity by HPLC after 4 hours (%) [3, 6] [%] | Purity by HPLC after 66 hours (%) [3, 6] [%] | also measured
C=Cc1c(C)c2cc3nc(c(CC(=O)O)c4[nH]c(cc5nc(cc1[nH]2)C(C)=C5CC)c(C)c4C(=O)NCCCS[C@@H]1O[C@H](CO)[C@@H](O)[C@H](O)[C@H]1O)[C@@H](CCC(=O)NCCCS[C@@H]1O[C@H](CO)[C@@H](O)[C@H](O)[C@H]1O)[C@@H]3C [Compound 1, chlorin e6 bis β-D-1-thioglucose propylamide conjugate 1] | – | – | – | – | IC90 [1, 5]: 6.48 µM; Dark toxicity μM (IC10) [2]: 168.10 µM
C=Cc1c(C)c2cc3nc(c(CC(=O)O)c4[nH]c(cc5nc(cc1[nH]2)C(C)=C5CC)c(C)c4C(=O)O)[C@@H](CCC(=O)O)[C@@H]3C [Photodithiazine, reference compound] | Poor | 88.56 | 84.33 | 40.27 | –
C=Cc1c(C)c2cc3nc(c(CC(=O)NCCCS[C@@H]4O[C@H](CO)[C@@H](O)[C@H](O)[C@H]4O)c4[nH]c(cc5nc(cc1[nH]2)C(C)=C5CC)c(C)c4C(=O)NCCCS[C@@H]1O[C@H](CO)[C@@H](O)[C@H](O)[C@H]1O)[C@@H](CCC(=O)NCCCS[C@@H]1O[C@H](CO)[C@@H](O)[C@H](O)[C@H]1O)[C@@H]3C [Compound 2, chlorin e6 tris β-D-1-thioglucose propylamide conjugate 2] | – | – | – | – | IC90 [1, 5]: 7.89 µM; Dark toxicity μM (IC10) [2]: 167.50 µM
C=Cc1c(C)c2cc3nc(c(CC(=O)N[C@@H](CC(=O)O)C(=O)O)c4[nH]c(cc5nc(cc1[nH]2)C(C)=C5CC)c(C)c4C(=O)O)[C@@H](CCC(=O)O)[C@@H]3C [Talaporfin sodium, reference compound] | – | – | – | – | Phototoxicity in vitro compared with compounds 1, 2 and 8 [1]: substantially lower phototoxicity; Dark toxicity μM (IC10) [4]: 11.10 µM
C=Cc1c(C)c2cc3nc(c(C)c4[nH]c(cc5nc(cc1[nH]2)C(C)=C5CC)c(C)c4C(=O)O)[C@@H](CCC(=O)O)[C@@H]3C [Chlorin e4 disodium, reference compound] | – | – | – | – | IC90 [1]: 21.3 µM; Phototoxicity in vitro compared with compounds 1, 2 and 8 [1]: substantially lower phototoxicity; Dark toxicity μM (IC10) [4]: 40.23 µM
C=Cc1c(C)c2cc3nc(c(CC(=O)OCC)c4[nH]c(cc5nc(cc1[nH]2)C(C)=C5CC)c(C)c4C(=O)O)[C@@H](CCC(=O)O)[C@@H]3C [Compound 16, Chlorin e6 15-ethyl Ester bis(N-methyl-D-glucamine) Salt] | Good | – | – | 95.34 | –
C=Cc1c(C)c2cc3nc(c(CC(=O)O)c4[nH]c(cc5nc(cc1[nH]2)C(C)=C5CC)c(C)c4C(=O)OC)[C@@H](CCC(=O)O)[C@@H]3C [Compound 20, Chlorin e6 5-methyl Ester bis(N-methyl-D-glucamine) Salt] | Poor | 81.39 | 81.28 | 1.62 | –
C=Cc1c(C)c2cc3nc(c(CC(=O)O)c4[nH]c(cc5nc(cc1[nH]2)C(C)=C5CC)c(C)c4C(=O)OC)[C@@H](CCC(=O)O)[C@@H]3C [Compound 13, Chlorin e6 5-methyl Ester Disodium Salt] | Poor | – | – | – | Purity by HPLC after 0.5 hours (%) [3, 7]: 85.46%; Purity by HPLC after 4 hours (%) [3, 7]: 81.54%; Purity by HPLC after 66 hours (%) [3, 7]: 41.60%
C=Cc1c(C)c2cc3nc(c(CC(=O)O)c4[nH]c(cc5nc(cc1[nH]2)C(C)=C5CC)c(C)c4C(=O)OC)[C@@H](CCC(=O)O)[C@@H]3C [Compound 12, Chlorin e6 5-methyl Ester Monosodium Mono(N-methyl-D-glucamine) Salt] | Poor | 83.73 | 81.10 | 36.95 | –
C=Cc1c(C)c2cc3nc(c(CC(=O)N(C)CCC[P+](c4ccccc4)(c4ccccc4)c4ccccc4)c4[nH]c(cc5nc(cc1[nH]2)C(C)=C5CC)c(C)c4C(=O)OC)[C@@H](CCC(=O)OC)[C@@H]3C [Compound 8, Chlorin e6 N-(methylaminopropyl)triphenylphosphonium Bromide Dimethyl Ester] | – | – | – | – | IC90 [1, 5]: 0.00418 µM; Dark toxicity μM (IC10) [2]: 1.032 µM
C=Cc1c(C)c2cc3nc(c(CC(=O)OCC)c4[nH]c(cc5nc(cc1[nH]2)C(C)=C5CC)c(C)c4C(=O)O)[C@@H](CCC(=O)O)[C@@H]3C [Compound 17, Chlorin e6 15-ethyl Ester Disodium Salt] | – | – | – | – | Purity by HPLC after 66 hours (%) [3, 7]: 76.69%; Purity by HPLC (%) after 2 hours ([3]; distilled deionised water, air and ambient light not excluded, after 2 hours): 77.60 (after %
C=Cc1c(C)c2cc3nc(c(CC(=O)N(C)CCCC)c4[nH]c(cc5nc(cc1[nH]2)C(C)=C5CC)c(C)c4C(=O)O)[C@@H](CCC(=O)O)[C@@H]3C [Compound 11, Chlorin e6 N-methylbutylamine bis(N-methyl-D-glucamine) Salt] | Good | 94.15 | 93.94 | – | Purity by HPLC (%) after 7 days ([3]; distilled deionised water, air and ambient light not excluded, after 7 days): 93.93 (after %
